This passage reports EC50 results from patent publication US20260166128A1, “HUMAN AMYLIN ANALOG, AND DERIVATIVE THEREOF AND USE THEREOF” (priority 2022, published 2026).

Numbered stars: 1 amine (or outer) side, 2 acyl side, 3 side chain; on linkers, the order of the positions; unused ones are H or OH. Bridge positions count the residues as written; N and C are the ends. Square brackets hold non-standard residues; d marks the D form. Side chains are listed from the residue outwards. Peptide text beside a SMILES is read from it. * marks the point of attachment. C20 diacid = O=C(O)CCCCCCCCCCCCCCCCCCC(=O)*; γGlu = O=C(O)[C@H](CCC(=O)[*:2])N[*:1]; βAsp = O=C(O)[C@H](CC(=O)[*:2])N[*:1]; Hyp = O=C(O)[C@@H]1C[C@@H](O)CN1; AEEA = NCCOCCOCC(=O)O

The EC50 is the concentration that produces a half-maximal response.

In the assay the target is T1, human amylin receptor (Homo sapiens, UniProt O60896+P30988).
T1 construct: host or cells: CHO-K1/Ga15/AMY3 cells, further stably transfected with a CRE-luciferase plasmid
T1 sequence (P30988 25-474): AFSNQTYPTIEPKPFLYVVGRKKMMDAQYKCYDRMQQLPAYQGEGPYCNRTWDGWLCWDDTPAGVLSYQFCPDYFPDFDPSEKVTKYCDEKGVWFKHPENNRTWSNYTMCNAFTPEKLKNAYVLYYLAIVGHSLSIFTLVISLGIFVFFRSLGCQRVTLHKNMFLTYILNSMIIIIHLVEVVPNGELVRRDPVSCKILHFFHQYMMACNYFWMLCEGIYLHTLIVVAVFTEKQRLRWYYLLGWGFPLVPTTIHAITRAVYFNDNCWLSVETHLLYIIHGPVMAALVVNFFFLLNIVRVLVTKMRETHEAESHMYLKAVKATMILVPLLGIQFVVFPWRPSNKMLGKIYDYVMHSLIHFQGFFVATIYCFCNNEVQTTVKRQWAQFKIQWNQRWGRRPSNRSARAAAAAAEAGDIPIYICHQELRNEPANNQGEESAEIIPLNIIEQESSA
T1 sequence (O60896 24-148 partner): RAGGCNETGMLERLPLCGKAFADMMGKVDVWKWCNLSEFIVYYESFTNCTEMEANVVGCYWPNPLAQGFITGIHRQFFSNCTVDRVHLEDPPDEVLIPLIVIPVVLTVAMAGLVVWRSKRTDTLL
The experiment in a line: Luciferase assay of amylin derivatives in amylin receptor/CRE-luc CHO cell line. The class given is cell-based. The conditions noted are these: CHO-K1/Ga15/AMY3 CRE-luc cells, 24 hours incubation, F12 medium containing 10% FBS; read-out: EC50.
Procedure: The experiment was intended to detect the activity or efficacy of the amylin derivatives on a human amylin receptor in vitro by luciferase assay.
50 μL of growth medium (F12 medium containing 10% FBS) was added into each well of a white 96-well plate, and the stably transfected amylin/CRE-lue CHO cells were inoculated into the white 96-well plate at a density of about 20,000 cells/well for activity determination.
Turning to `CC[C@H](C)[C@H](NC(=O)[C@@H]1CCCN1C(=O)[C@H](CO)NC(=O)[C@H](CC(C)C)NC(=O)[C@H](CC(N)=O)NC(=O)[C@H](CC(N)=O)NC(=O)[C@H](CO)NC(=O)[C@H](CO)NC(=O)[C@H](Cc1c[nH]cn1)NC(=O)[C@H](CCCNC(=N)N)NC(=O)[C@H](CC(C)C)NC(=O)[C@H](Cc1ccccc1)NC(=O)[C@H](CC(=O)O)NC(=O)[C@H](C)NC(=O)[C@H](CC(C)C)NC(=O)[C@H](CCCNC(=N)N)NC(=O)[C@H](CCC(N)=O)NC(=O)[C@@H](NC(=O)[C@H](C)NC(=O)[C@@H]1CSSC[C@H](NC(=O)[C@H](CCCCN)NC(=O)CC[C@H](NC(=O)CCCCCCCCCCCCCCCCCCC(=O)O)C(=O)O)C(=O)N[C@@H](CC(N)=O)C(=O)N[C@@H]([C@@H](C)O)C(=O)N[C@@H](C)C(=O)N[C@@H]([C@@H](C)O)C(=O)N1)[C@@H](C)O)C(=O)N[C@@H](CC(C)C)C(=O)N1CCC[C@H]1C(=O)N1CCC[C@H]1C(=O)N[C@H](C(=O)N[C@@H](CC(N)=O)C(=O)N[C@H](C(=O)NCC(=O)N[C@@H](CO)C(=O)N[C@@H](CC(N)=O)C(=O)N[C@H](C(=O)N1CCC[C@H]1C(N)=O)[C@@H](C)O)C(C)C)[C@@H](C)O` [PD166] ({C20 diacid-γGlu}-KCNTATCATQRLADFLRHSSNNLSPILPPTNVGSNTP-NH2; disulfide 2-7 (inferred)), the concentration giving a half-maximal response (EC50) is 0.054 nM.
Consider `CC[C@H](C)[C@H](NC(=O)[C@@H]1CCCN1C(=O)CNC(=O)[C@H](CC(C)C)NC(=O)[C@H](CC(N)=O)NC(=O)[C@H](CC(N)=O)NC(=O)[C@H](CO)NC(=O)[C@H](CO)NC(=O)[C@H](Cc1c[nH]cn1)NC(=O)[C@H](CCCNC(=N)N)NC(=O)[C@H](CC(C)C)NC(=O)[C@H](Cc1ccccc1)NC(=O)[C@H](CC(=O)O)NC(=O)[C@H](C)NC(=O)[C@H](CC(C)C)NC(=O)[C@H](CCCNC(=N)N)NC(=O)[C@H](CCC(N)=O)NC(=O)[C@@H](NC(=O)[C@H](C)NC(=O)[C@@H]1CSSC[C@H](NC(=O)[C@H](CCCCN)NC(=O)CC[C@H](NC(=O)CCCCCCCCCCCCCCCCCCC(=O)O)C(=O)O)C(=O)N[C@@H](CC(N)=O)C(=O)N[C@@H]([C@@H](C)O)C(=O)N[C@@H](C)C(=O)N[C@@H]([C@@H](C)O)C(=O)N1)[C@@H](C)O)C(=O)N[C@@H](CC(C)C)C(=O)N1CCC[C@H]1C(=O)N1CCC[C@H]1C(=O)N[C@H](C(=O)N[C@@H](CC(N)=O)C(=O)N[C@H](C(=O)NCC(=O)N[C@@H](CO)C(=O)N[C@@H](CC(N)=O)C(=O)N[C@H](C(=O)N1C[C@H](O)C[C@H]1C(N)=O)[C@@H](C)O)C(C)C)[C@@H](C)O` [PD069] ({C20 diacid-γGlu}-KCNTATCATQRLADFLRHSSNNLGPILPPTNVGSNT[Hyp]-NH2; disulfide 2-7), for which the concentration giving a half-maximal response (EC50) is 0.039 nM.
In the case of `CC[C@H](C)[C@H](NC(=O)[C@@H]1CCCN1C(=O)[C@H](CCCCN)NC(=O)[C@H](CC(C)C)NC(=O)[C@H](CC(N)=O)NC(=O)[C@H](CC(N)=O)NC(=O)[C@H](CO)NC(=O)[C@H](CO)NC(=O)[C@H](Cc1c[nH]cn1)NC(=O)[C@H](CCCNC(=N)N)NC(=O)[C@H](CC(C)C)NC(=O)[C@H](Cc1ccccc1)NC(=O)[C@H](CC(=O)O)NC(=O)[C@H](C)NC(=O)[C@H](CC(C)C)NC(=O)[C@H](CCCNC(=N)N)NC(=O)[C@H](CCC(N)=O)NC(=O)[C@@H](NC(=O)[C@H](C)NC(=O)[C@@H]1CSSC[C@H](NC(=O)[C@H](CCCCN)NC(=O)COCCOCCNC(=O)COCCOCCNC(=O)C[C@H](NC(=O)CCCCCCCCCCCCCCCCCCC(=O)O)C(=O)O)C(=O)N[C@@H](CC(N)=O)C(=O)N[C@@H]([C@@H](C)O)C(=O)N[C@@H](C)C(=O)N[C@@H]([C@@H](C)O)C(=O)N1)[C@@H](C)O)C(=O)N[C@@H](CC(C)C)C(=O)N1CCC[C@H]1C(=O)N1CCC[C@H]1C(=O)N[C@H](C(=O)N[C@@H](CC(N)=O)C(=O)N[C@H](C(=O)NCC(=O)N[C@@H](CO)C(=O)N[C@@H](CC(N)=O)C(=O)N[C@H](C(=O)N1CCC[C@H]1C(N)=O)[C@@H](C)O)C(C)C)[C@@H](C)O` [PD195] ({C20 diacid-βAsp-AEEA-AEEA}-KCNTATCATQRLADFLRHSSNNLKPILPPTNVGSNTP-NH2; disulfide 2-7 (inferred)), the half-maximal effective concentration (EC50) is 0.025 nM.
`CC[C@H](C)[C@H](NC(=O)[C@@H]1CCCN1C(=O)CNC(=O)[C@H](CC(C)C)NC(=O)[C@H](CC(N)=O)NC(=O)[C@H](CC(N)=O)NC(=O)[C@H](CCCCNC(=O)COCCOCCNC(=O)COCCOCCNC(=O)CC[C@H](NC(=O)CCCCCCCCCCCCCCCCCCC(=O)O)C(=O)O)NC(=O)[C@H](CO)NC(=O)[C@H](Cc1c[nH]cn1)NC(=O)[C@H](CCCNC(=N)N)NC(=O)[C@H](CC(C)C)NC(=O)[C@H](Cc1ccccc1)NC(=O)[C@H](CC(=O)O)NC(=O)[C@H](C)NC(=O)[C@H](CC(C)C)NC(=O)[C@H](CCCNC(=N)N)NC(=O)[C@H](CCC(N)=O)NC(=O)[C@@H](NC(=O)[C@H](C)NC(=O)[C@@H]1CSSC[C@H](NC(=O)[C@@H](N)CCCNC(=N)N)C(=O)N[C@@H](CC(N)=O)C(=O)N[C@@H]([C@@H](C)O)C(=O)N[C@@H](C)C(=O)N[C@@H]([C@@H](C)O)C(=O)N1)[C@@H](C)O)C(=O)N[C@@H](CC(C)C)C(=O)N1CCC[C@H]1C(=O)N1CCC[C@H]1C(=O)N[C@H](C(=O)N[C@@H](CC(N)=O)C(=O)N[C@H](C(=O)NCC(=O)N[C@@H](CO)C(=O)N[C@@H](CC(N)=O)C(=O)N[C@H](C(=O)N1C[C@H](O)C[C@H]1C(N)=O)[C@@H](C)O)C(C)C)[C@@H](C)O` [PD095] (H-RCNTATCATQRLADFLRHSK([AEEA-AEEA-γGlu-C20 diacid])NNLGPILPPTNVGSNT[Hyp]-NH2; disulfide 2-7): the EC50 is 0.047 nM.
In the case of `CC[C@H](C)[C@H](NC(=O)[C@@H]1CCCN1C(=O)[C@H](CCCCNC(=O)CC[C@H](NC(=O)CCCCCCCCCCCCCCCCCCC(=O)O)C(=O)O)NC(=O)[C@H](CC(C)C)NC(=O)[C@H](CC(N)=O)NC(=O)[C@H](CC(N)=O)NC(=O)[C@H](CO)NC(=O)[C@H](CO)NC(=O)[C@H](Cc1c[nH]cn1)NC(=O)[C@H](CCCNC(=N)N)NC(=O)[C@H](CC(C)C)NC(=O)[C@H](Cc1ccccc1)NC(=O)[C@H](CC(=O)O)NC(=O)[C@H](C)NC(=O)[C@H](CC(C)C)NC(=O)[C@H](CCCNC(=N)N)NC(=O)[C@H](CCC(N)=O)NC(=O)[C@@H](NC(=O)[C@H](C)NC(=O)[C@@H]1CSSC[C@H](N)C(=O)N[C@@H](CC(N)=O)C(=O)N[C@@H]([C@@H](C)O)C(=O)N[C@@H](C)C(=O)N[C@@H]([C@@H](C)O)C(=O)N1)[C@@H](C)O)C(=O)N[C@@H](CC(C)C)C(=O)N1CCC[C@H]1C(=O)N1CCC[C@H]1C(=O)N[C@H](C(=O)N[C@@H](CC(N)=O)C(=O)N[C@H](C(=O)NCC(=O)N[C@@H](CO)C(=O)N[C@@H](CC(N)=O)C(=O)N[C@H](C(=O)N1C[C@H](O)C[C@H]1C(N)=O)[C@@H](C)O)C(C)C)[C@@H](C)O` [PD054] (H-CNTATCATQRLADFLRHSSNNLK([γGlu-C20 diacid])PILPPTNVGSNT[Hyp]-NH2; disulfide 1-6), the EC50 worked out at 0.049 nM.
As for `CC[C@H](C)[C@H](NC(=O)[C@@H]1CCCN1C(=O)[C@H](CCCCNC(=O)CC[C@H](NC(=O)CCCCCCCCCCCCCCCCCCC(=O)O)C(=O)O)NC(=O)[C@H](CC(C)C)NC(=O)[C@H](CC(N)=O)NC(=O)[C@H](CC(N)=O)NC(=O)[C@H](CO)NC(=O)[C@H](CO)NC(=O)[C@H](Cc1c[nH]cn1)NC(=O)[C@H](CCCNC(=N)N)NC(=O)[C@H](CC(C)C)NC(=O)[C@H](Cc1ccccc1)NC(=O)[C@H](CCC(=O)O)NC(=O)[C@H](C)NC(=O)[C@H](CC(C)C)NC(=O)[C@H](CCCNC(=N)N)NC(=O)[C@H](CCC(N)=O)NC(=O)[C@@H](NC(=O)[C@H](C)NC(=O)[C@@H]1CSSC[C@H](N)C(=O)N[C@@H](CC(N)=O)C(=O)N[C@@H]([C@@H](C)O)C(=O)N[C@@H](C)C(=O)N[C@@H]([C@@H](C)O)C(=O)N1)[C@@H](C)O)C(=O)N[C@@H](CC(C)C)C(=O)N1CCC[C@H]1C(=O)N1CCC[C@H]1C(=O)N[C@H](C(=O)N[C@@H](CC(N)=O)C(=O)N[C@H](C(=O)NCC(=O)N[C@@H](CO)C(=O)N[C@@H](CC(N)=O)C(=O)N[C@H](C(=O)N1C[C@H](O)C[C@H]1C(N)=O)[C@@H](C)O)C(C)C)[C@@H](C)O` [PD053] (H-CNTATCATQRLAEFLRHSSNNLK([γGlu-C20 diacid])PILPPTNVGSNT[Hyp]-NH2; disulfide 1-6), the figure is 0.075 nM.
Regarding `CC[C@H](C)[C@H](NC(=O)[C@@H]1CCCN1C(=O)CNC(=O)[C@H](CC(C)C)NC(=O)[C@H](CC(N)=O)NC(=O)[C@H](CC(N)=O)NC(=O)[C@H](CO)NC(=O)[C@H](CCCCNC(=O)COCCOCCNC(=O)CC[C@H](NC(=O)CCCCCCCCCCCCCCCCCCC(=O)O)C(=O)O)NC(=O)[C@H](Cc1c[nH]cn1)NC(=O)[C@H](CCCNC(=N)N)NC(=O)[C@H](CC(C)C)NC(=O)[C@H](Cc1ccccc1)NC(=O)[C@H](CC(=O)O)NC(=O)[C@H](C)NC(=O)[C@H](CC(C)C)NC(=O)[C@H](CCCNC(=N)N)NC(=O)[C@H](CCC(N)=O)NC(=O)[C@@H](NC(=O)[C@H](C)NC(=O)[C@@H]1CSSC[C@H](NC(=O)[C@@H](N)CCCNC(=N)N)C(=O)N[C@@H](CC(N)=O)C(=O)N[C@@H]([C@@H](C)O)C(=O)N[C@@H](C)C(=O)N[C@@H]([C@@H](C)O)C(=O)N1)[C@@H](C)O)C(=O)N[C@@H](CC(C)C)C(=O)N1CCC[C@H]1C(=O)N1CCC[C@H]1C(=O)N[C@H](C(=O)N[C@@H](CC(N)=O)C(=O)N[C@H](C(=O)NCC(=O)N[C@@H](CO)C(=O)N[C@@H](CC(N)=O)C(=O)N[C@H](C(=O)N1C[C@H](O)C[C@H]1C(N)=O)[C@@H](C)O)C(C)C)[C@@H](C)O` [PD118] (H-RCNTATCATQRLADFLRHK([AEEA-γGlu-C20 diacid])SNNLGPILPPTNVGSNT[Hyp]-NH2; disulfide 2-7), the EC50 was found to be 0.032 nM.
